Common to all, as to type: cell-based
Assay [1] concerns NCI/ADR-RES (formerly MCF-7/ADR) human breast cell line. Nature of the assay: Antiproliferative MTT assay, NCI/ADR-RES. To be noted: 72-h exposure. As for the experimental part: (§1) The lasonolide compounds were analyzed as to their effects on proliferation of A549 human lung adenocarcinoma, PANC-1 human pancreatic cancer and NCI-ADR-RES tumor cell lines. A549 human lung adenocarcinoma, PANC-1 pancreatic cancer cells and the NCI/ADR-RES (formerly MCF-7/ADR) human breast cell lines were obtained from the American Type Culture Collection (Rockville, Md.).
(§2) All cell lines are maintained in Roswell Park Memorial Institute (RPMI) medium 1640 supplemented with 100 U/mL penicillin 100 μg/ml streptomycin, 60 μg/ml L-glutamine, 18 mM HEPES, 0.05 mg/mL gentamycin and 10% fetal bovine serum (for the PANC-1 cell line the media is also supplemented with 100 μg/ml sodium pyruvate and 2.5 mg/ml glucose). Cell lines are cultured in plastic tissue culture flasks and kept in an incubator at 37° C. in humidified air containing 5% CO2.
(§3) To assess the antiproliferative effects of agents against the various cell lines, 200 μl cultures (96-well tissue culture plates, Nunc, Denmark) are first established at 3×10^4 cells/ml for adherent lines in tissue culture medium and incubated for 24 hr at 37° C. in 10% CO2 in air in order to allow cells to attach. A volume of 100 μl of medium is removed from each test well and 100 μl of medium containing serial, two-fold dilutions of the test agent is added to each well containing tumor cells. Medium without drug is also added to wells containing tumor cells which serve as no drug controls.
(§4) Positive drug controls are included to monitor drug sensitivity of each of the cell lines. These include varying dilutions of 5-fluorouracil, and doxorubicin. After 72-h exposure, tumor cells are enumerated using 3-[4,5-Dimethylthiazol-2-yl]-2,5-diphenyltetrazolium bromide (MTT) (M. C. Alley, et al., Cancer Res. 48:589, 1988) as follows:
(§5) A volume of 75 μl of warm growth media containing 5 mg/ml MTT is added to each well, cultures returned to the incubator, and left undisturbed for 3 hours. To spectrophotometrically quantitate formation of reduced formazan, plates are centrifuged (900×g, 5 minutes), culture fluids removed by aspiration, and 200 μl of acidified isopropanol (2 ml concentrated HCl/liter isopropanol) added per well. The absorbance of the resulting solutions is measured at 570 nm with a plate reader (Spectra II (Tecan Laboratories). The absorbance of tests wells is divided by the absorbance of drug-free wells, and the concentration of agent that results in 50% of the absorbance of untreated cultures (IC50) is determined by linear regression of logit-transformed data (D. J. Finney, Statistical Method in Biological Assay, third ed., pp.316-348, Charles Griffin Co., London, 1978). A linear relationship between tumor cell number and formazan production has been routinely observed over the range of cell densities observed in these experiments. The two standard drug controls (indicated above) are included in each assay to monitor the drug sensitivity of each of the cell lines and IC50 values are determined for each drug-cell combination.
(Tetrazolium assays rely on reduction of a dye to a coloured formazan, in cell work by metabolically active cells.)

Assay [2] concerns PANC-1 human pancreatic cancer. Nature of the assay: Antiproliferative MTT assay, PANC-1. As for the experimental part: as §1, §2, §3, §4, §5
Assay [3] deals with A549 human lung adenocarcinoma. Nature of the assay: Antiproliferative MTT assay, A549. As for the experimental part:
as §1, §2, §3, §4, §5

In assay [4] the test system is Candida albicans (ATCC strain 44506). As to the kind of experiment: Agar (disk) diffusion assay. To be noted: 37° C., 24 hours. As for the experimental part:
(§6) The antifungal activity of lasonolides C and F against Candida albicans (American Type Culture Collection strain 44506) was determined through the use of both agar diffusion and broth dilution assays.
Agar diffusion assays were performed using Sabouraud Dextrose agar plates seeded with the test microbe at 10^5/ml. Disks (6.35 mm, Schliecher and Schuell) were impregnated with 25 μg of test compound, allowed to dry and then placed on the agar surface. After incubation at 37° C. for 24 hours the zones of growth inhibition were determined. A control disk containing 100IU nystatin was run on the same plate as the test compound: the zone of inhibition was 28 mm.

For assay [5] the test system is unchanged. Nature of the assay: Broth dilution assay (MIC). To be noted: 37° C.; for MIC: Candida albicans, ATCC44506, 24 h; for Minimum inhibitory concentration (MIC): 24 hours. How it is done:
as §6
Broth dilution assays were performed as standard 96-well microtiter assays in a total volume of 50 μl with a seeding density of 10^3 cells/ml. The concentration range for test compound ranged from 50 to 3 μg/ml as two-fold dilutions. […] The Minimum inhibitory concentration (MIC) of Lasonolide F (IV) against Candida albicans in SDB broth is 50 μg/ml while in RPMI broth it is greater than 50 μg/ml.
On the technique in general: Broth dilution looks for growth in wells or tubes with falling amounts of substance.

[6] abbreviates: Homo sapiens, NCI/ADR-RES, value in parentheses.
Setting [7] is: Homo sapiens, PANC-1, 72-h exposure.
Setting [8] is: Homo sapiens, PANC-1, 72-h exposure, value in parentheses.
[9] abbreviates: Homo sapiens, A549, 72-h exposure.
The mark [10] stands for this setting: Homo sapiens, A549, 72-h exposure, value in parentheses.
Setting [11] is: 72-h exposure, value in parentheses.

Converted amounts (≈) assume the structure as drawn. Read-outs that look alike come from different tables or passages of the source.

As usually defined, the IC50 is the concentration at which inhibition is half-maximal. For the compound `CC1=C/[C@H]2O[C@@H](C/C=C/C=C/C(=O)O[C@@H]3C[C@@H](/C=C/C\C=C\1)O[C@@H](C/C=C\CCO)[C@]3(C)CO)C[C@H](O)[C@H]2C` [Lasonolide D (II), Lasonolide D], the IC50 in assay [1] (Homo sapiens, NCI/ADR-RES) was over 5 µg/mL; in assay [1] (setting [6]) it was over 9000 nM; in assay [2] (setting [7]) it was 2.6 µg/mL; in assay [2] (setting [8]) it was 4900 nM; in assay [3] (setting [9]) it was 2.4 µg/mL; in assay [3] (setting [10]), 4500 nM.
Take `C[C@@H]1[C@H](O)[C@@H](C)/C=C/C=C/CC/C=C/C=C/C=C/C=C/C(O[C@H]2O[C@H](C)[C@@H](O)[C@H](N)[C@@H]2O)CC2O[C@](O)(CC(O)C(O)CCC(O)CC(O)CC(O)CC(=O)O[C@H]1C)CC(O)C2C(=O)O` (some centres unmarked) [nystatin, reference compound]: in assay [4] (control disk containing 100IU, same plate), the zone of inhibition came to 28 mm.
Regarding `CC1=C/[C@H]2O[C@@H](C/C=C/C=C/C(=O)O[C@@H]3C[C@@H](/C=C/C\C=C\1)O[C@@H](C/C=C\CC(O)C(=O)O)[C@]3(C)CO)C[C@H](O)[C@H]2C` (some centres unmarked) [Lasonolide F (IV), Lasonolide F], the zone of inhibition at 25 µg/mL in assay [4] (Candida albicans, ATCC44506, tested at 25 μg/ml (disk 6.35 mm impregnated with 25 μg), read-out: growth inhibitory zone) turned out to be 10 mm. Further, the MIC is over 50 µg/mL in assay [5] (RPMI broth, read-out: Minimum inhibitory concentration (MIC)) and 50 µg/mL (≈ 85.2 µM) in assay [5] (SDB broth, read-out: Minimum inhibitory concentration (MIC)).
As for `CCOC(=O)C(O)C/C=C\C[C@@H]1O[C@@H]2/C=C/C/C=C/C(C)=C\[C@H]3O[C@@H](C/C=C/C=C/C(=O)O[C@H](C2)[C@@]1(C)CO)C[C@H](O)[C@H]3C` (some centres unmarked) [Lasonolide E (III), Lasonolide E], the IC50 in assay [1] (Homo sapiens, NCI/ADR-RES) was over 5 µg/mL; in assay [1] (setting [6]), over 8000 nM; in assay [2] (setting [7]), 0.35 µg/mL; in assay [2] (setting [8]) it was 570 nM; in assay [3] (setting [9]) it was 0.19 µg/mL; in assay [3] (setting [10]), 310 nM.
In assay [4] (tested at 25 μg/ml (disk 6.35 mm impregnated with 25 μg)), Lasonolide C [Lasonolide C (I)] showed a growth inhibitory zone of 15 mm. The “Minimum inhibitory concentration (MIC)” value in assay [5] (RPMI broth) came out at 12.5 µg/mL; in assay [5] (SDB broth) it was 5 µg/mL. In addition, the “NCI ADR-RES IC50” value in assay [1] came out at 0.8 µg/mL. For the same compound, the IC50 amounted to 1120 nM in assay [1] (value in parentheses), 380 nM in assay [2] (setting [11]) and 130 nM in assay [3] (setting [11]). Further, the “PANC-1 IC50” value in assay [2] (72-h exposure) is 0.27 µg/mL. In addition, the “A549 IC50” value in assay [3] (72-h exposure) amounted to 0.095 µg/mL.
Take `Nc1nc(=O)[nH]cc1F` [5-fluorocytosine, reference compound]: the MIC in assay [5] (antifungal control, broth not stated, read-out: MIC) amounted to 0.62 µg/mL (≈ 4.8 µM).

The values are drawn from US7521474B2, “Biologically active lasonolide compounds” (priority 2003, dated 2009).
